Assay results taken from patent publication US6034056A, “Fibronectin adhesion inhibitors” (Zeneca Limited, priority 1994, dated 2000).
Where a SMILES comes first, the peptide text is derived from it. [ ]: non-standard residue; d: D form. βAla = NCCC(=O)O

How the values were obtained:
Jurkat cell = conditions: read-out: IC50, blocking Jurkat cell adhesion to CS-1 coated plates; cited from earlier work
Jurkat cells = conditions: cited from earlier work
αvβ3 = αvβ3 (Homo sapiens, UniProt P05106+P06756); conditions: cited from earlier work
Chain of αvβ3 (P06756 31-889 limits assumed): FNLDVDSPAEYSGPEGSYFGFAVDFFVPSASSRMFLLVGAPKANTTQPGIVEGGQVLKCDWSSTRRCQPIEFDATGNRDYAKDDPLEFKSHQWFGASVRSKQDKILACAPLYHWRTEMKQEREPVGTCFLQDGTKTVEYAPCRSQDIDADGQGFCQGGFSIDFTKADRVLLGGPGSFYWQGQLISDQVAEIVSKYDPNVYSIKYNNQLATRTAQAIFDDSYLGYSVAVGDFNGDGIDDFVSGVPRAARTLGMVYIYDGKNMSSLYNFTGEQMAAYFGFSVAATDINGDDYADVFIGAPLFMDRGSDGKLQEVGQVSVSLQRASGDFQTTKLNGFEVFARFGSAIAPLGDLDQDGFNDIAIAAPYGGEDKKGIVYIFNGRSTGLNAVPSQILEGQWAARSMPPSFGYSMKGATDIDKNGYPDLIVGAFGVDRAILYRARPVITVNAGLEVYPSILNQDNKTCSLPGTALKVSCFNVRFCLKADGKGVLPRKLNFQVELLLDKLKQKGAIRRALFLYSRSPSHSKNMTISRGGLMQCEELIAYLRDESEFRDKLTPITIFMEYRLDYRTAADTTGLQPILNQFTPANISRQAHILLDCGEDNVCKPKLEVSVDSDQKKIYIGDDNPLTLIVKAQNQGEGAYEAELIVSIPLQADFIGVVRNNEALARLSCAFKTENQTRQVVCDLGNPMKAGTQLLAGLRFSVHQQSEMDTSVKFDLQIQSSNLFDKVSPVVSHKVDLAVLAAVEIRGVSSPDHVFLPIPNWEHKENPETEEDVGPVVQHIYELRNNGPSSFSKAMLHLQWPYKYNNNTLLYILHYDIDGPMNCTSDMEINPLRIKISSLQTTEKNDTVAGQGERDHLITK
Chain of αvβ3 (P06756 891-1048 partner limits assumed): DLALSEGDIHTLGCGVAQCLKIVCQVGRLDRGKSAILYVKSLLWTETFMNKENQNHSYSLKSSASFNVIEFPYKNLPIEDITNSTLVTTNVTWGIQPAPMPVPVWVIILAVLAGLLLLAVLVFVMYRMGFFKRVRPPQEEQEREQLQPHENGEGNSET
Chain of αvβ3 (P05106 27-788): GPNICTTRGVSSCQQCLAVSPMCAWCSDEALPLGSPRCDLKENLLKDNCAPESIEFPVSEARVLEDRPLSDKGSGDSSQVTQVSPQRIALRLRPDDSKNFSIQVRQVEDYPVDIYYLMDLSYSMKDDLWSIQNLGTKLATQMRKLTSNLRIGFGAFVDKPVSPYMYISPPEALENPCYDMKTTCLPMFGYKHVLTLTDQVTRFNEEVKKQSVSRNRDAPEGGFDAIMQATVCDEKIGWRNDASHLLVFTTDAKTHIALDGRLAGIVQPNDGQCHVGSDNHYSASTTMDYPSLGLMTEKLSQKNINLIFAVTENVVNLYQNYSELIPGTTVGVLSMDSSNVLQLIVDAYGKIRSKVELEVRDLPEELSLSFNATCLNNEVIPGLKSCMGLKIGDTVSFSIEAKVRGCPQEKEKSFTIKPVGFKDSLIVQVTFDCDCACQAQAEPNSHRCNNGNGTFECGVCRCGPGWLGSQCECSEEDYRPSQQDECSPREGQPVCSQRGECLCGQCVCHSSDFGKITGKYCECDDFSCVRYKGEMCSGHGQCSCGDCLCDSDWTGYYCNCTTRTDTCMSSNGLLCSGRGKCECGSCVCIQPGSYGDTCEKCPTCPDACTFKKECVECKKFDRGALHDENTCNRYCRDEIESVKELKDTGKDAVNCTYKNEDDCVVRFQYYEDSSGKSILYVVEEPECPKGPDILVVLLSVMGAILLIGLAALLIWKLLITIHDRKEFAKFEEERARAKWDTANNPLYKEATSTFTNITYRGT

αIIbβIIIa = αIIbβIIIa (Homo sapiens, UniProt P05106+P08514); conditions: cited from earlier work
Chain of αIIbβIIIa (P08514 32-887 limits assumed): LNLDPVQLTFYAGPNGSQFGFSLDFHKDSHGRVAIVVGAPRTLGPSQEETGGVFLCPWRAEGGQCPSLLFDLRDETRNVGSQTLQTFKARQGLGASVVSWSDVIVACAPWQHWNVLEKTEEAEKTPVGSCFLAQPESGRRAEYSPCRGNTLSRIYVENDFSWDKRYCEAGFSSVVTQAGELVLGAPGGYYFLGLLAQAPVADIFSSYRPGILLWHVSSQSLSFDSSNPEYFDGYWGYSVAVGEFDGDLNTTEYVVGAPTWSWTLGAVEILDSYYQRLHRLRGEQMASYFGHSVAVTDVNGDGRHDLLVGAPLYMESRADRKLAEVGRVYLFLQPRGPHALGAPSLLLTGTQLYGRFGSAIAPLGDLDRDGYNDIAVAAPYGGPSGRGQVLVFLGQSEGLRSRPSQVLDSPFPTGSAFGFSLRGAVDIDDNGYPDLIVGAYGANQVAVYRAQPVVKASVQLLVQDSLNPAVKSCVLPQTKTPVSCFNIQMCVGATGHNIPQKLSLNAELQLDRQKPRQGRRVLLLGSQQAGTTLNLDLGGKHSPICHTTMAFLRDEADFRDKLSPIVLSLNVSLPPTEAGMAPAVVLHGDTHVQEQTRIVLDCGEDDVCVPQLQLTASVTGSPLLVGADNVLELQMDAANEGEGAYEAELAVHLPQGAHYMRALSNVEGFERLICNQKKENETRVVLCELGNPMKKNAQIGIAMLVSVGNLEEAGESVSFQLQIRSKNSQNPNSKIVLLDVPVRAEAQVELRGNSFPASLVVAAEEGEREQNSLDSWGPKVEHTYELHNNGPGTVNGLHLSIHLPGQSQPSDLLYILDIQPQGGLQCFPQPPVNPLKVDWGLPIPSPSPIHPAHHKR
Chain of αIIbβIIIa (P08514 891-1039 partner limits assumed): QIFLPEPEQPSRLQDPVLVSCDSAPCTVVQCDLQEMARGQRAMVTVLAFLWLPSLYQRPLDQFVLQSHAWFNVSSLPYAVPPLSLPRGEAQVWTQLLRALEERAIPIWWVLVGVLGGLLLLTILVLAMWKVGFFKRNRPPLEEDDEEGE
Chain of αIIbβIIIa (P05106 27-788): as the sequence (P05106 27-788) above

[1] = biological tests (not specified); conditions: at 200 μM
[2] = system: 120 kDa chymotryptic fragment of fibronectin; conditions: cited from earlier work
leukocyte cell = conditions: cited from earlier work

Molecule: 1-adamantaneacetyl-Cys-Gly-Arg-Gly-Asp-Ser-Pro-Cys
- IC50 (Jurkat cell): 30 µM
- inhibition of Jurkat cell binding to fibronectin coated plates (Jurkat cells): inhibited the binding
- inhibition of function in αvβ3-dependent assay (αvβ3): inhibited function
- inhibition of function in αIIbβIIIa-dependent assay (αIIbβIIIa): inhibited function

Molecule: CC[C@H](C)[C@@H]1NC(=O)CCNC(=O)[C@H](C(C)C)NC(=O)[C@H](CC(=O)O)NC(=O)[C@H](CC(C)C)NC1=O (cyclo(DV[βAla]IL))
- activity in biological tests [1]: inactive

Molecule: Arg-Cys-Asp-thioproline-Cys
- inhibition of binding to 120 kDa fibronectin fragment [2]: inhibited the binding
- inhibition of leukocyte cell adhesion to fibronectin (leukocyte cell): inhibitor of leukocyte cell adhesion to fibronectin

Molecule: Cys-Leu-His-Gly-Pro-Glu-Ile-Ieu-Asp-Val-Pro-Ser-Thr
- IC50 (Jurkat cell): 30 µM
